Assay results: US5244916A, “Inhibition of respiratory burst using posttranslational modification inhibitors” (The Scripps Research Institute, priority 1992, dated 1993)

Columns and labels:
[1] = tested on: Rap1; assay: Western blot of Rap1 in membrane and cytosol fractions of HL-60 cells; assay type: cell-based; settings: 10 μM compactin
Protocol: Western blots were performed as described in Bokoch, et al., Cell Biol. 106: 1927-1936 (1988).
The ability of the concentrations of compactin used to inhibit endogenous HL-60 cell LMWG isoprenylation was assessed. Inhibition of Rapl isoprenylation was determined in two ways. Western blotting was used to evaluate the presence of Rap1 in cytosol or membrane fractions of compactin-treated vs. untreated cells (see FIG. 1). […] HL-60 cells were treated with ±10 μM compactin, and membrane and cytosol fractions were prepared as described in Example 1. Equal amounts of membrane protein (100 μg) and cytosol protein (70 μg), respectively,were loaded in each lane. Total membrane protein obtained in this experiment from about 3×10^8 cells was about 3 mg and cytosolic protein was about 2 mg. The samples were analyzed on 15% SDS-polyacrylamide gels (SDS-PAGE), transferred to nitrocellulose, and blotted with specific anti-Rapl antibody, R61, at 1:500 dilution. Detection was with ^125 I-goat anti-rabbit IgG and autoradiograms were exposed for 24-36 hours with intensifying screen at -70° C.

[2] = tested on: NADPH oxidase; assay: Cell-free O2- formation by subcellular fractions from compactin-treated HL-60 cells, complemented with human neutrophil fractions, SDS-initiated; assay type: biochemical; settings: for Rate of O2 formation / Rate, percent of respective untreated HL-60 sample: 10 μM
Protocol: The cells were then pelleted and resuspended in 10 mM Pipes pH 7.3, 100 mM KCl, 3 mM NaCl, 1 mM ATP, 3.5mM MgCl2 (Relax buffer) plus 100U aprotonin/ml, 1 mM PMSF, and 0.34M sucrose to a final concentration of about 1×10^8 /ml. […] Louis, MO), 6.25 mM MgCl2, 93 mM KCl, 2.8 mM NaCl, 9.3 mM Pipes pH 7.3, 0.8mM ATP, 0.16 mM NADPH, 10 μM GTPgammaS, 225 μg HL-60 cytosol, or 250 μg ([…]; cell equivalents) of human neutrophil cytosol and ±300μg/ml SOD (Sigma Chemical Co., St. Louis, MO). After a three-minute equilibration at 25° C., the formation of O2 --was initiated by the addition of 100 μM SDS. O2 --generation was monitored continuously as the SOD-sensitive reduction of cytochrome c at 550 nm. Human neutrophil plasma membranes (gamma-GSP) and cytosol (GSS) were prepared as described in (Curnutte, et al., suora (1987)). […] To localize the compactin-sensitive factor required for NADPH oxidase activity to either the cytosol, membrane, or both, subcellular fractions from control or compactin-treated differentiated HL-60 cells were prepared. The membrane fraction and cytosol from the cells were then analyzed using the cell-free NADPH oxidase system. […] HL-60 cells were treated ±10 μM compactin, as described herein. Untreated cytosol/membrane and compactin cytosol/membrane, etc., refer to the fractions obtained from these cells. Values are the result of duplicate determinations within each experiment. Values in parentheses represent the percent of the rate obtained for the respective untreated HL-60 sample. Whether the inhibited factor(s) was present in the membrane fraction or cytosol was determined via performing complementation experiments using cytosol or membranes from normal human neutrophils. Data from these experiments is illustrated above in Table 3 and in FIG. 2. FIG. 2 illustrates complementation analysis of O2 -formation by control versus compactin-treated HL-60 cells. O2 --formation was analyzed in a cell-free assay as described in the Examples. Line A represents untreated HL-60 membrane +neutrophil GSS; line B represents compactin-treated HL-60 membrane+neutrophil GSS; line C represents untreated HL-60 cytosol+neutrophil gamma GSP; line D represents compactin-treated HL-60 cytosol+neutrophil gamma GSP.

[3] = tested on: NADPH oxidase in HL-60 cells; assay: Inhibition of NADPH oxidase activation / O2- generation in HL-60 cells (stimulus not singled out); assay type: cell-based
Protocol: HL-60 cells were maintained in stationary culture in RPMI 1640 medium (Gibco, Grand Island, NY) containing 10% fetal bovine serum at 37° C in an atmosphere of 95 air and 5% CO2. The cells (about 8×10^5 /ml) were differentiated into neutrophil-like cells by treatment with 1.3% DMSO for six days (Harris, et al., J. Leukocyte Biol. 37: 407-422 (1985)). The cells were treated with the indicated levels of compactin or lovastatin by addition of a 1,000-fold concentrated stock solution to the appropriate concentration on day 4 of differentiation. […] In studies of the protective effect of mevalonic acid, the compound was added as the mevalonolactone (Sigma Chemical Co., St. Louis, MO) at a concentration of 1 mM to the cell culture on days 4 to 6. Similarly, cholesterol was added in the form of LDL prepared according to the method of Curtiss and Edgington (Curtiss, et al., J. Biol. Chem. 257: 15213-15221 (1991)) at a final concentration of 50 μg/ml; ubiquinone (Sigma Chemical Co., St. Louis, MO) was added as Coenzyme Q-10 at a final concentration of 0.5 mM; and dolichol (Sigma Chemical Co., St. Louis, MO) was added as a dispersion in phosphatidylcholine at a final concentration of 0.5 mM (Cutts, et al., J. Cell Physiol. 139: 550-555 (1989)). O2 --formation by HL-60 cells was assessed by the SOD-sensitive reduction of cytochrome c. Cells were suspended at 1×10^7 /ml in Krebs-Ringer Hepes buffer with 5.5 mM glucose (KRHG) and 50-100μl of cells were added to a cuvette containing 100 μM cytochrome c (type III, Sigma Chemical Co., St. Louis, MO), ±300 μg/ml SOD (Sigma Chemical Co., St. Louis, MO) in 700-750 μl KRHG. Cytochalasin b (Sigma Chemical Co., St. Louis, MO) was added to a final concentration of 5 μg/ml, and the cells were incubated at 37° C. for five minutes while a stable baseline at a wavelength of 550 nm was obtained. O2 --formation was initiated by the addition of 1 μM N-formylmethionylleucylphenylalanine (FMLP; Sigma Chemical Co., St. Louis, MO) or 1μg/ml phorbol myristate acetate (PMA; Sigma Chemical Co., St. Louis, MO). Cytochrome c reduction at 550nm was continuously monitored and maximal rate and extent of the reaction calculated.

[4] = Exp. 1, compactin cytosol + compactin membrane
[5] = Exp. 1, compactin cytosol + neutrophil membrane
[6] = Exp. 1, neutrophil cytosol + compactin membrane
[7] = Exp. 2, compactin cytosol + compactin membrane
[8] = Exp. 2, compactin cytosol + neutrophil membrane
[9] = Exp. 2, neutrophil cytosol + compactin membrane
[10] = Exp. 3, compactin cytosol + neutrophil membrane
[11] = Exp. 3, neutrophil cytosol + compactin membrane

SMILES: CC[C@H](C)C(=O)O[C@H]1CCC=C2C=C[C@H](C)[C@H](CC[C@@H]3C[C@@H](O)CC(=O)O3)[C@H]21 [compactin]
- Rap1 membrane association after treatment [1]: a portion of this GTP-binding protein was still membrane associated
- appearance of Rap1 in the cytosolic fraction [1]: large amounts
- total Rap1 previously associated with the membrane pellet now soluble ([1]; densitometry, n=3): 60-70%
- rate and extent of the burst, fractions from compactin-pretreated cells ([2]; 10 μM compactin, compactin cytosol + compactin membrane, 100 μM SDS): less than 10 % of control values
- Rate of O2 formation [2, 4]: 0.1 nmol/min
- Rate, percent of respective untreated HL-60 sample [2, 4]: 1%
- Rate of O2 formation [2, 5]: 1.1 nmol/min
- Rate, percent of respective untreated HL-60 sample [2, 5]: 33%
- Rate of O2 formation [2, 6]: 1.9 nmol/min
- Rate, percent of respective untreated HL-60 sample [2, 6]: 95%
- Rate of O2 formation [2, 7]: 0.4 nmol/min
- Rate, percent of respective untreated HL-60 sample [2, 7]: 5%
- Rate of O2 formation [2, 8]: 1.5 nmol/min
- Rate, percent of respective untreated HL-60 sample [2, 8]: 37%
- Rate of O2 formation [2, 9]: 2.6 nmol/min
- Rate, percent of respective untreated HL-60 sample [2, 9]: 100%
- Rate of O2 formation [2, 10]: 2.4 nmol/min
- Rate, percent of respective untreated HL-60 sample [2, 10]: 47%
- Rate of O2 formation [2, 11]: 4.0 nmol/min
- Rate, percent of respective untreated HL-60 sample [2, 11]: 98%
- rate of O2- formation relative to untreated HL-60 cytosol ([2]; compactin cytosol + neutrophil membrane): about one-third
- lag period after addition of SDS ([2]; compactin cytosol + neutrophil membrane, FIG. 2): marked increase
- rate of O2- formation with membrane from compactin-treated cells ([2]; compactin membrane + neutrophil cytosol, versus untreated): essentially identical
- ability of cytosol to support oxidative response ([2]; cytosol from compactin-treated cells): largely defective
- ability of membrane fraction to support respiratory burst ([2]; membrane from compactin-treated cells): fully support a normal respiratory burst
- inhibition of NADPH oxidase activation, effective concentrations [3]: micromolar concentrations
- inhibition at 10 µM ([3]; Homo sapiens, HL-60, 10 μM compactin, response to FMLP or PMA, read-out: inhibition of O2- formation): > 85%
- IC50 ([3]; Homo sapiens, DMSO-differentiated HL-60, response to FMLP or PMA, read-out: half-maximal inhibition of O2- formation): 0.4 to 2 µM
- ability of HL-60 cells to generate O2- ([3]; response to receptor stimuli and downstream activators): markedly inhibited
